pIC50: −log10 of the molar value.

This assay addresses T1, CARM1 (PRMT4) (Homo sapiens, UniProt Q86X55).
T1 construct: Flag-CARM1-His; made in house; host or cells: HEK 293F cells (BacMam virus)
T1 sequence (Q86X55 1-585 isoform Q86X55-1): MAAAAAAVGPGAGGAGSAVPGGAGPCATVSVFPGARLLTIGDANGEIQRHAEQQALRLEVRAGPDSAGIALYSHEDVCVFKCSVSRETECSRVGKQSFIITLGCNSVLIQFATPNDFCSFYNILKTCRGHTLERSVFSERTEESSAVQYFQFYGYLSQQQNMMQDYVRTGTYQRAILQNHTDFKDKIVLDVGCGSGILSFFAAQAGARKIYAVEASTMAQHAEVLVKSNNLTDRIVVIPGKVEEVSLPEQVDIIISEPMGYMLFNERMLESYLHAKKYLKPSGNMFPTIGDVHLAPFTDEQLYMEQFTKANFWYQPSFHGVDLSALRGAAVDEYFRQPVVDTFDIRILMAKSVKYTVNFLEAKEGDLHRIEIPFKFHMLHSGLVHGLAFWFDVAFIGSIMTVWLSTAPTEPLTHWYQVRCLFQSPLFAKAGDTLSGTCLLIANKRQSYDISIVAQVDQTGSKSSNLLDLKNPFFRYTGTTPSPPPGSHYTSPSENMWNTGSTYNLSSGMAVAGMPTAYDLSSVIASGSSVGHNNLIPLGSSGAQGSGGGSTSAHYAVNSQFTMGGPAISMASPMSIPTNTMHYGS
In words: CARM1 Biochemical Assay (3H-SAM Flashplate, peptide substrate). As to conditions: 30 min preincubation, room temperature. The text has this:
S-adenosylmethionine (SAM), S-adenosylhomocysteine (SAH), bicine, Tween20, dimethylsulfoxide (DMSO), bovine skin gelatin (BSG), sodium butyrate and Tris(2-carboxyethyl)phosphine hydrochloride solution (TCEP) were purchased from Sigma-Aldrich at the highest level of purity possible. ^3H-SAM was purchase from American Radiolabeled Chemicals with a specific activity of 80 Ci/mmol. 384-well streptavidin Flashplates were purchased from PerkinElmer.
Peptide representative of human histone H3 residues 16-30 was synthesized with an N-terminal linker-affinity tag motif and a C-terminal amide cap by 21st Century Biochemicals. The peptide was purified by high-performance liquid chromatography (HPLC) to greater than 95% purity and confirmed by liquid chromatography mass spectrometry (LC-MS). The sequence was Biot-Ahx-[…]-amide and contained a monomethylated arginine at position 26 (SEQ ID NO.:14).
Human CARM1 (PRMT4) (NM_199141.1) transcript clone was amplified from an HEK 293 cDNA library, incorporating a flanking 5′ sequence encoding a FLAG tag ([…]) (SEQ ID NO.:6) fused directly to Ala 2 of CARM1 and 3′ sequence encoding a hexa His sequence ([…]) (SEQ ID NO.:15) fused directly to Ser 608. The gene sequence encoding isoform1 containing a deletion of amino acids 539-561 was amplified subsequently and subcloned into pFastBacMam (Viva Biotech).
Recombinant baculovirus were generated according to Bac-to-Bac kit instructions (Life Technologies). […] Infections were carried out at 37° C. for 48 hours, harvested by centrifugation, and stored at −80° C. for purification.
Column was washed with 500 mM NaCl in buffer A and Flag-CARM1-His was eluted with 200 ug/ml FLAG peptide in buffer A. Pooled fractions were dialyzed in 20 mM Tris, 150 mM NaCl, 5% glycerol and 1 mM DTT, pH 7.8. The purity of recovered protein was 94.
General Procedure for CARM1 Enzyme Assays on Peptide Substrates.
The assays were all performed in a buffer consisting of 20 mM Bicine (pH=7.6), 1 mM TCEP, 0.005% BSG, and 0.002% Tween 20, prepared on the day of use. Compounds in 100% DMSO (1 ul) were spotted into a polypropylene 384-well V-bottom plates (Greiner) using a Platemate Plus outfitted with a 384-channel head (Thermo Scientific). DMSO (1 ul) was added to Columns 11, 12, 23, 24, rows A-H for the maximum signal control and 1 ul of SAH, a known product and inhibitor of CARM1, was added to columns 11, 12, 23, 24, rows I-P for the minimum signal control. A cocktail (40 ul) containing the CARM1 enzyme was added by Multidrop Combi (Thermo-Fisher). The compounds were allowed to incubate with CARM1 for 30 min at room temperature, then a cocktail (10 ul) containing ^3H-SAM and peptide was added to initiate the reaction (final volume=51 ul). The final concentrations of the components were as follows: CARM1 was 0.25 nM, ^3H-SAM was 30 nM, peptide was 250 nM, SAH in the minimum signal control wells was 1 mM, and the DMSO concentration was 2%. The assays were stopped by the addition of non-radiolabeled SAM (10 ul) to a final concentration of 300 uM, which dilutes the ^3H-SAM to a level where its incorporation into the peptide substrate is no longer detectable. 50 ul of the reaction in the 384-well polypropylene plate was then transferred to a 384-well Flashplate and the biotinylated peptides were allowed to bind to the streptavidin surface for at least 1 hour before being washed once with 0.1% Tween20 in a Biotek ELx405 plate washer. The plates were then read in a PerkinElmer TopCount plate reader to measure the quantity of ^3H-labeled peptide bound to the Flashplate surface, measured as disintegrations per minute (dpm) or alternatively, referred to as counts per minute (cpm).
Where dpm=disintegrations per minute, cmpd=signal in assay well, and min and max are the respective minimum and maximum signal controls.
Where top and bottom are the normally allowed to float, but may be fixed at 100 or 0 respectively in a 3-parameter fit. […]

For `CN(CCN)Cc1c[nH]nc1-c1ccsc1` [Compound 3], the negative logarithm of the IC50 (pIC50) was 5.00 to 5.52.

Consider `CN(CCN)Cc1c[nH]nc1-c1cncnc1` [Compound 4], for which the pIC50 was at most 5.00.

In turn, `CN(CCN)Cc1c[nH]nc1-c1cccs1` [Compound 5] gave a pIC50 of at most 5.00.

In the case of `CN(CCN)Cc1c[nH]nc1-c1ccco1` [Compound 6], the negative-log IC50 (pIC50) is 5.00 to 5.52.

In turn, `CN(CCN)Cc1c[nH]nc1-c1ccoc1` [Compound 7] gave a negative-log IC50 (pIC50) of 5.00 to 5.52.

With `CN(CCN)Cc1c[nH]nc1-c1cnn(C)c1` [Compound 8], the pIC50 is 5.00 to 5.52.

For the compound `CN(CCN)Cc1c[nH]nc1-c1ccc2scnc2c1` [Compound 9], the pIC50 is 5.52 to 6.00.

Regarding `Cc1noc(C)c1-c1n[nH]cc1CN(C)CCN` [Compound 10], the negative logarithm of the IC50 (pIC50) is at most 5.00.

The compound `COc1ncc(-c2n[nH]cc2CN(C)CCN)cn1` [Compound 11] had a pIC50 of at most 5.00.

For `CN(CCN)Cc1c[nH]nc1-c1cn[nH]c1` [Compound 12], the pIC50 was at most 5.00.

Compound `CN(CCN)Cc1c[nH]nc1-c1cnc2[nH]ccc2c1` [Compound 13] gave a negative-log IC50 (pIC50) of 6.00 to 7.00.

Compound `CN(CCN)Cc1c[nH]nc1-c1cc[nH]n1` [Compound 14] had a pIC50 of at most 5.00.

The term pIC50 denotes the negative decadic logarithm of the IC50, by convention in mol/L.

The values are drawn from patent publication US9630961B2, “Arginine methyltransferase inhibitors and uses thereof” (Epizyme, Inc., priority 2013, dated 2017).
